{"source": "patent US20220071932A1", "about": "“Compositions and Methods Against Stress-Induced Affective Disorders and Their Associated Symptoms” (The Trustees of Columbia University in the City of New York, priority 2019, published 2022)", "format_in_all_cases": "in vivo", "key": {"[1]": {"system": "129S6/SvEv mice", "experiment": "Open field (OF)", "conditions": "for distance travelled in the OF / time spent in the center of the OF arena: vs saline", "description": "The OF assay was administered as previously described (47). Briefly, motor activity was quantified in 4 Plexiglas open field boxes 43×43 cm^2 (MED Associates, Georgia, Vt.). Two sets of 16 pulse-modulated infrared photobeams on opposite walls 2.5-cm apart recorded x-y ambulatory movements. Activity chambers were computer interfaced for data sampling at 100-ms resolution. The computer defined grid lines that dividing center and surround regions, with the center square consisting of four lines 11 cm from the wall."}, "[2]": {"system": "129S6/SvEv mice", "experiment": "Novelty suppressed feeding (NSF)", "description": "Testing was performed as previously described (47). Briefly, the NSF testing apparatus consisted of a plastic box (50×50×20 cm). The floor of which was covered with approximately 2 cm of wooden bedding and the arena was brightly lit (approximately 1000 lux). Mice were food restricted for 24 h prior to testing. At the time of testing, a single pellet of food (regular chow) was placed on a white paper platform positioned in the center of the box. Each animal was placed in a corner of the box, and a stopwatch was immediately started. The latency of the mice to begin eating in the arena was recorded Immediately after the latency was recorded, the food pellet was removed from the arena. The mice were then placed back into their home cage. The latency to eat and the amount of food consumed in 5 min were measured (home cage consumption), followed by an assessment of post-restriction weight. A Kaplan-Meier survival analysis was used due to the lack of normal distribution of data. The Mantel-Cox log-rank test was used to evaluate differences between the experimental groups."}, "[3]": {"system": "129S6/SvEv mice", "experiment": "Elevated plus maze (EPM)", "conditions": "(R,S)-ketamine 30 mg/kg, FENM 10, 20 or 30 mg/kg, vs saline", "description": "Testing was performed as previously described (47). Briefly, the maze is a plus-cross-shaped apparatus consisting of four arms, two open and two enclosed by walls, linked by a central platform at a height of 50 cm from the floor. Mice were individually placed in the center of the maze facing an open arm and were allowed to explore the maze for 5 min. The time spent in and the number of entries into the open arms was used as an anxiety index. Videos were scored using ANY-maze behavior tracking software (Stoelting, Wood Dale, Ill.)."}, "[4]": {"conditions": "1 week prior to CFC, (R,S)-ketamine 30 mg/kg, FENM 10, 20 or 30 mg/kg"}, "[5]": {"conditions": "5 min prior to CFC, (R,S)-ketamine 30 mg/kg, FENM 20 mg/kg"}, "[6]": {"conditions": "Fisher's PLSD, drug 5 minutes after stress, FENM 20 mg/kg, (R,S)-ketamine 30 mg/kg"}, "[7]": {"conditions": "Saline vs. (R,S)-ketamine (30 mg/kg), cohort 5 min before re-exposure 1, FIG. 9L"}, "[8]": {"conditions": "5 min after context re-exposure 1, (R,S)-ketamine 30 mg/kg, FENM 20 mg/kg, vs saline"}, "[9]": {"conditions": "5 minutes after CFC, re-exposure 1 day after training, (R,S)-ketamine 30 mg/kg, FENM 20 mg/kg, vs saline"}, "[10]": {"conditions": "5 minutes prior to re-exposure 1, (R,S)-ketamine 30 mg/kg, FENM 20 mg/kg, vs saline"}, "[11]": {"conditions": "5 minutes after CFC, re-exposure 5 days after training"}}, "data": [{"compound": "CNC1(c2ccccc2Cl)CCCCC1=O", "note": "(racemic) [(R,S)-ketamine, reference compound]", "values": [{"measurement": "distance travelled in the OF", "setting": "[1]; [4]", "value": "did not alter"}, {"measurement": "time spent in the center of the OF arena", "setting": "[1]; [4]", "value": "did not alter"}, {"measurement": "distance travelled in the OF", "setting": "[1]; [5]", "value": "did not alter"}, {"measurement": "time spent in the center of the OF arena", "setting": "[1]; [5]", "value": "did not alter"}, {"measurement": "p, Distance Travelled (cm), OF, Saline vs. drug", "setting": "[1]; Fisher's PLSD after RMANOVA, drug 5 minutes after stress, FENM 20 mg/kg, (R,S)-ketamine 30 mg/kg, FIG. 3L", "value": 0.9319}, {"measurement": "p, Distance Travelled Min 1 (cm), OF, Saline vs. drug", "setting": "[1]; [6]", "value": 0.0589}, {"measurement": "p, Distance Travelled Min 2 (cm), OF, Saline vs. drug", "setting": "[1]; [6]", "value": 0.0098}, {"measurement": "p, Distance Travelled Min 3 (cm), OF, Saline vs. drug", "setting": "[1]; [6]", "value": 0.1586}, {"measurement": "p, Distance Travelled Min 4 (cm), OF, Saline vs. drug", "setting": "[1]; [6]", "value": 0.6504}, {"measurement": "p, Distance Travelled Min 5 (cm), OF, Saline vs. drug", "setting": "[1]; [6]", "value": 0.3454}, {"measurement": "p, Distance Travelled Min 6 (cm), OF, Saline vs. drug", "setting": "[1]; [6]", "value": 0.7410}, {"measurement": "p, Distance Travelled Min 7 (cm), OF, Saline vs. drug", "setting": "[1]; [6]", "value": 0.1344}, {"measurement": "p, Distance Travelled Min 8 (cm), OF, Saline vs. drug", "setting": "[1]; [6]", "value": 0.1467}, {"measurement": "p, Distance Travelled Min 9 (cm), OF, Saline vs. drug", "setting": "[1]; [6]", "value": 0.0061}, {"measurement": "p, Distance Travelled Min 10 (cm), OF, Saline vs. drug", "setting": "[1]; [6]", "value": 0.4667}, {"measurement": "Open Field, Distance Travelled Min 1 (cm), p (Fisher's LSD)", "setting": "[1]; [7]", "value": 0.3306}, {"measurement": "Open Field, Distance Travelled Min 2 (cm), p (Fisher's LSD)", "setting": "[1]; [7]", "value": 0.5200}, {"measurement": "latency to feed in the open arena (NSF)", "setting": "[2]; 1 week prior to CFC, (R,S)-ketamine 30 mg/kg, FENM 10, 20 or 30 mg/kg, vs saline", "value": "did not alter"}, {"measurement": "latency to eat in the NSF arena", "setting": "[2]; [8]", "value": "did not alter"}, {"measurement": "latency to eat in the homecage (NSF)", "setting": "[2]; [8]", "value": "did not alter"}, {"measurement": "latency to feed in the open arena (NSF)", "setting": "[2]; 5 min prior to CFC, (R,S)-ketamine 30 mg/kg, FENM 20 mg/kg, vs saline", "value": "increased the latency to feed"}, {"measurement": "latency to feed in the home cage (NSF)", "setting": "[2]; [9]", "value": "did not alter"}, {"measurement": "latency to feed in the open arena (NSF)", "setting": "[2]; [9]", "value": "did not alter"}, {"measurement": "latency to feed in the open arena (NSF)", "setting": "[2]; 5 minutes after CFC, re-exposure 5 days after training, (R,S)-ketamine 30 mg/kg, FENM 10, 20 or 30 mg/kg, vs saline", "value": "did not alter"}, {"measurement": "latency to eat in the NSF arena", "setting": "[2]; [10]", "value": "did not alter"}, {"measurement": "latency to eat in the homecage (NSF)", "setting": "[2]; [10]", "value": "did not alter"}, {"measurement": "Novelty Suppressed Feeding, Latency to feed in OF (sec), p (Fisher's LSD)", "setting": "[2]; Saline vs. (R,S)-ketamine (30 mg/kg), FIG. 8P", "value": 0.0575}, {"measurement": "distance travelled in the EPM", "setting": "[3]; 1 week prior to CFC", "value": "did not alter"}, {"measurement": "time spent in the open arms and center of the EPM", "setting": "[3]; 1 week prior to CFC", "value": "did not alter"}, {"measurement": "distance travelled in the EPM", "setting": "[3]; [11]", "value": "did not alter"}, {"measurement": "time spent in the open arms and center of the EPM", "setting": "[3]; [11]", "value": "did not alter"}]}]}
